The subject of data set [1] is anthracycline (doxorubicin) induced myocardiotoxicity. The data set is described as follows: Protective effect of glutathione on doxorubicin induced myocardiotoxicity in rats. The settings on record: doxorubicin 3 mg/kg i.v. and/or GSH i.v. 30 minutes before, every 7 days, 4 times; 8 weeks. In kind it is in vivo, Sprague Dawley rats. On the procedure:
Twenty-four Sprague Dawley rats, weighing 150-200 g, fed with standard diet and water "ad libitum", were randomized in 4 groups (A,B,C,D) 6 animals each.
Six animals were treated i.v. in the morning (10 am.) with […]) dissolved in normal saline (total injected volume 1 ml/kg). After 30 minutes, the same animals were treated i.v. with doxorubicin (3 mg/kg) dissolved in normal saline (total injected volume 1 ml/kg).
The treatment has been then repeated after 7 days, for 4 consecutive times as a whole.
Six animals were treated similarly to group A, except that glutathione was omitted and substituted with normal saline only.
Six animals were treated similarly to group A, except that doxorubicin was substituted with normal saline only.
Six animals were treated similarly to group A except that both drugs were substituted with normal saline.
The day of the first administration was defined "zero day" and all the animals were killed after 8 weeks from the start of the experiment.
During the experiment, starting from the zero time, all the animals were evaluated weekly for body weight increase, electrocardiographic intervals Q-T and S-T.
After the 8-week experiment, the necroscopic examination allowed to evaluate for each animal the degree of myocardial lesions expressed as an average of vacuolate cells for 10 observation fields at the optical microscope (200 x).

Data set [2] deals with P388 leukemia. In kind it is in vivo. On the procedure:
In the Table 1, the results obtained in CD2F1 mice i.p. treated at the day 0 with […] P388 leukemia cells and treated. i.p. at the day 1 with doxorubicin (DX) (7.5 mg/kg) and/or with GSH (333 mg/mg doxorubicin) are reported.
The GSH was administered 30 min. before DX.
The experiment of the combination GSH+DX was repeated in 2 groups of animals.
TMS means mean survival time in days, T/C % is a percent value of the response of drug treated animals in comparison with the control, taken as 100.
TOX means the number of treated animals died before the control animals. LTS is the number of animals survived at long term (2 months at least).
It should be stressed that the test used an experimental model, the P388 leukemia, characterized by an exclusively intraperitoneal tumor growth, i.e. a growth in the cavity wherein the insulation of the tumoral cells has been carried out.

The subject of data set [3] is P388 leukemia. As to the kind of experiment: Effect of GSH (i.v.) at different doxorubicin dosages (i.p.) on P388 leukemia in mice (Table 2). It is filed as in vivo. The settings on record: for LTS >60 days / T/C % / TOX: in combination GSH 1500 mg/kg i.v.; for TMS: in combination GSH 1500 mg/kg i.v. 30' before. The procedure: The experimental conditions are similar to that of the previous test.
In these tests, the glutathione has been administered i.v., 30' before of the optional i.p. administration of anthracycline, doxorubicin.
The GSH treated animals received an equal amount of drug (1500 mg/kg) whereas the doxorubicin treated animals received i.p. scalar amounts of anthracycline. The animals consecutively treated with GSH and DX received the two drugs in the ratios of 100, 125, 150 and 200 mg of GSH per mg of DX.

For data set [4], the system named is P388 leukemia. As to the kind of experiment: GSH and Doxorubicin effect on P388 leukemia in CD2F1 mice (Table 3). In kind it is in vivo. As to conditions: GSH 375 mg/kg i.v. and/or DX 7,5 mg/kg i.p. (GSH/DX 50). The procedure:
(§1) The experiments were carried out in a similar way to the experimental scheme of the previous tests 2 and 3. The glutathione was administered i.v. 30, before of doxorubicin. In the tests, whose experimental data are reported in the Tables 3 and 4, the doxorubicin is administered i.p. at a sub-optimal dose level (for the used treatment schedule), in order to evidentiate the synergic effect of the glutathione treatment.
In the test of Table 3 wherein P388 leukemic cells were inoculated, variable dosages of glutathione were used, with respect to the fixed dose of DX (7.5 mg/kg) so as to provide GSH/DX ratios respectively of 20 and 50 mg of GSH per mg of DX.

For data set [5], the system named is P388/DX resistant leukemic cells. As to the kind of experiment: Effect of GSH and doxorubicin on DX-resistant P388/DX leukemia in CD2F1 mice (Table 4). In kind it is in vivo. On the procedure:
as §1
In the case of inoculation of P388/DX resistant leukemic cells an intermediate dose of glutathione was administered, corresponding to GSH/DX ratio of 25 mg/mg (total dose of GSH 187.5).

The subject of data set [6] is P388 leukemia. The data set is described as follows: Effect of GSH (i.v.) at different doxorubicin dosages (i.p.) on P388 leukemia in mice (Table 2). It is filed as in vivo. As to conditions: DX 12,5 mg/kg i.p.
Data set [7] has as its system human HT-29 cells (colon carcinoma). As to the kind of experiment: In vitro activity of GSH and methotrexate on human HT-29 cells. As to conditions: MTX 24 h, read-out: concentration causing 50% of cell death. It is filed as cell-based. On the procedure:
(5) In vitro activity of GSH and methotrexate (MTX) on human HT-29 cells (colon carcinoma). Human HT-29 cells (colon carcinoma) were used; the cells were pre-treated with GSH at the concentrations of 20 and 40 mg/ml and then exposed to MTX at the concentrations of 0.05, 0.1, 0.5 and 1 mg/ml for 24 h. The concentrations causing 50% of cell death turned out to be 0.12 mg/ml in the absence of GSH and about 0.04-0.06 mg/ml in the presence of GSH. The cells were cultivated in RPMI 1640 medium+10% of fetal calf serum.

For data set [8], the system named is advanced and relapsing ovarian tumor. The data set is described as follows: high-dose cis-platinum+GSH in a patient with advanced and relapsing ovarian tumor (Example 3A). The settings on record: in combination with glutathione. In kind it is in vivo, human. On the procedure: However, in the therapeutical practice, the treatment is usually interrupted after 2 or 3 cycles (400 mg/m^2 or 600 mg/m^2) because of the onset of serious side-effects, which can even be fatal.
A patient having an advanced and relapsing ovarian tumor previously treated with cis-platinum, was treated with a combination of cis-platinum+GSH every four weeks. Cis-platinum was administered at a weekly dosage of 200 mg/m^2 (40 mg/m^2 i.v. in normal saline at 1-5 days) for five weeks; GSH was administered i.v. at a dosage of 35 mg/ mg of cis-platinum in normal saline, 30 minutes before administration of cis-platinum. The week of administration (5 administrations) was followed by three weeks of rest, and then the cycle was repeated, and so on, for a total of 5 cycles of administration extending over 17 weeks (5 weeks of actual treatment and 12 weeks (3 weeks X 4) of rest intervals).

The test system is the same in data set [9]. As to conditions: administered without glutathione; severe side-effects; cited from earlier work.
Setting [10] is: day 1 i.p.: DX 7.5 mg/kg and/or GSH 333 mg/mg doxorubicin.
Setting [11] is: GSH 187,5 mg/kg i.v. and/or DX 7,5 mg/kg i.p.
Where [12] appears, read: in combination GSH 1500 mg/kg i.v.

Structures are written as SMILES. In brackets after ≈: the same amount, converted by molar mass. Where two headings read alike, the source gives them in different places.

`COc1cccc2c1C(=O)c1c(O)c3c(c(O)c1C2=O)C[C@@](O)(C(=O)CO)C[C@@H]3O[C@H]1C[C@H](N)[C@H](O)[C@H](C)O1` [DX, doxorubicin]: in [1], the “body growth curve, ECG recording (Q-T, S-T), number of vacuolate myocardial cells” value is “toxic and cardiological effects”. Besides, the “LTS (number of animals survived at long term, 2 months at least)” value in data set [2] (setting [10]) was 0/10. The T/C % in data set [2] (setting [10]) was found to be 140%; in data set [3] (DX 10 mg/kg i.p.) it was 170%; in [3] (DX 15 mg/kg i.p.), 60%; in data set [3] (DX 7,5 mg/kg i.p.) it was 155%; in data set [4], 163%; in data set [5] (setting [11]) it was 118%. Also, the T/C % in data set [6] (setting [12]) amounted to 120%. Moreover, the “TOX (number of treated animals died before the control animals)” value in [2] (setting [10]) is recorded as 0/10. Moreover, in [2] (day 1 i.p.: DX 7.5 mg/kg and/or GSH 333 mg/mg doxorubicin 30 min. before DX), the “TMS (mean survival time)” value turned out to be 16 days. Further, the “LTS >60 days” value in [3] (DX 10 mg/kg i.p.), in data set [3] (DX 15 mg/kg i.p.), in [3] (DX 7,5 mg/kg i.p.) and in [3] (DX 12,5 mg/kg i.p.) was 0/8 in each case. Moreover, the TOX is 0/8 in [3] (DX 10 mg/kg i.p.); 8/8 in data set [3] (DX 15 mg/kg i.p.); 0/8 in data set [3] (DX 7,5 mg/kg i.p.); 0/10 in data set [4]; 0/10 in [5] (setting [11]); 4/8 in [6] (setting [12]). Besides, the TMS in data set [3] (DX 10 mg/kg i.p.) is recorded as 17 days; in data set [3] (DX 15 mg/kg i.p.) it was 6 days; in data set [3] (DX 7,5 mg/kg i.p.), 15,5 days; in data set [4] it was 16,7 days; in data set [5] (GSH 187,5 mg/kg i.v. and/or DX 7,5 mg/kg i.p. (GSH/DX 25 mg/mg)) it was 11,4 days; in data set [6] (in combination GSH 1500 mg/kg i.v. 30' before), 12 days. Besides, the LTS in data set [4] and in data set [5] (setting [11]) was 0/10 in each case.

For `CN(Cc1cnc2nc(N)nc(N)c2n1)c1ccc(C(=O)N[C@@H](CCC(=O)O)C(=O)O)cc1` [MTX, methotrexate], the IC50 in data set [7] (in the absence of GSH) is 120 µg/mL (≈ 264 µM); in data set [7] (in the presence of GSH (pre-treated at 20 and 40 mg/ml)), 40 to 60 µg/mL.

For the compound `N.N.[Cl][Pt][Cl]` [CDDP, cis-diamine-dichloroplatinum], in data set [8], the “maximum applicable dosage of cis-platinum” value is recorded as “about 1000 mg/m^2”. Further, the “maximum dosage of cis-platinum” value in data set [9] is 400-600 mg/m^2.

Source of the values: US4871528A, “Pharmaceutical compositions having antineoplastic activity” (Boehringer Biochemia Robin SpA, priority 1986, dated 1989).
